Measured values published in patent publication US20170275275A1, “BENZENESULFONAMIDES USEFUL AS SODIUM CHANNEL INHIBITORS” (PFIZER INC., priority 2014, published 2017).
≈ marks a conversion by molar mass, not a printed value. Structures can show the parent of a compound that is named as a salt.

Assays:
[1] = target: T1, Nav1.7 (or SCN9A) channel (Homo sapiens, UniProt Q15858); test: Nav1.7 (hSCN9A) channel block, PatchXpress (PX) whole-cell electrophysiology in stably transfected HEK cells; format: cell-based; conditions: for IC50: estimated IC50 from single point electrophysiology data, PatchXpress platform, HEK cells expressing hSCN9A, clamped at V1/2 of inactivation, read-out: Nav1.7 EIC50
T1 construct: expressed in transfected cells
T1 sequence (Q15858 whole entry): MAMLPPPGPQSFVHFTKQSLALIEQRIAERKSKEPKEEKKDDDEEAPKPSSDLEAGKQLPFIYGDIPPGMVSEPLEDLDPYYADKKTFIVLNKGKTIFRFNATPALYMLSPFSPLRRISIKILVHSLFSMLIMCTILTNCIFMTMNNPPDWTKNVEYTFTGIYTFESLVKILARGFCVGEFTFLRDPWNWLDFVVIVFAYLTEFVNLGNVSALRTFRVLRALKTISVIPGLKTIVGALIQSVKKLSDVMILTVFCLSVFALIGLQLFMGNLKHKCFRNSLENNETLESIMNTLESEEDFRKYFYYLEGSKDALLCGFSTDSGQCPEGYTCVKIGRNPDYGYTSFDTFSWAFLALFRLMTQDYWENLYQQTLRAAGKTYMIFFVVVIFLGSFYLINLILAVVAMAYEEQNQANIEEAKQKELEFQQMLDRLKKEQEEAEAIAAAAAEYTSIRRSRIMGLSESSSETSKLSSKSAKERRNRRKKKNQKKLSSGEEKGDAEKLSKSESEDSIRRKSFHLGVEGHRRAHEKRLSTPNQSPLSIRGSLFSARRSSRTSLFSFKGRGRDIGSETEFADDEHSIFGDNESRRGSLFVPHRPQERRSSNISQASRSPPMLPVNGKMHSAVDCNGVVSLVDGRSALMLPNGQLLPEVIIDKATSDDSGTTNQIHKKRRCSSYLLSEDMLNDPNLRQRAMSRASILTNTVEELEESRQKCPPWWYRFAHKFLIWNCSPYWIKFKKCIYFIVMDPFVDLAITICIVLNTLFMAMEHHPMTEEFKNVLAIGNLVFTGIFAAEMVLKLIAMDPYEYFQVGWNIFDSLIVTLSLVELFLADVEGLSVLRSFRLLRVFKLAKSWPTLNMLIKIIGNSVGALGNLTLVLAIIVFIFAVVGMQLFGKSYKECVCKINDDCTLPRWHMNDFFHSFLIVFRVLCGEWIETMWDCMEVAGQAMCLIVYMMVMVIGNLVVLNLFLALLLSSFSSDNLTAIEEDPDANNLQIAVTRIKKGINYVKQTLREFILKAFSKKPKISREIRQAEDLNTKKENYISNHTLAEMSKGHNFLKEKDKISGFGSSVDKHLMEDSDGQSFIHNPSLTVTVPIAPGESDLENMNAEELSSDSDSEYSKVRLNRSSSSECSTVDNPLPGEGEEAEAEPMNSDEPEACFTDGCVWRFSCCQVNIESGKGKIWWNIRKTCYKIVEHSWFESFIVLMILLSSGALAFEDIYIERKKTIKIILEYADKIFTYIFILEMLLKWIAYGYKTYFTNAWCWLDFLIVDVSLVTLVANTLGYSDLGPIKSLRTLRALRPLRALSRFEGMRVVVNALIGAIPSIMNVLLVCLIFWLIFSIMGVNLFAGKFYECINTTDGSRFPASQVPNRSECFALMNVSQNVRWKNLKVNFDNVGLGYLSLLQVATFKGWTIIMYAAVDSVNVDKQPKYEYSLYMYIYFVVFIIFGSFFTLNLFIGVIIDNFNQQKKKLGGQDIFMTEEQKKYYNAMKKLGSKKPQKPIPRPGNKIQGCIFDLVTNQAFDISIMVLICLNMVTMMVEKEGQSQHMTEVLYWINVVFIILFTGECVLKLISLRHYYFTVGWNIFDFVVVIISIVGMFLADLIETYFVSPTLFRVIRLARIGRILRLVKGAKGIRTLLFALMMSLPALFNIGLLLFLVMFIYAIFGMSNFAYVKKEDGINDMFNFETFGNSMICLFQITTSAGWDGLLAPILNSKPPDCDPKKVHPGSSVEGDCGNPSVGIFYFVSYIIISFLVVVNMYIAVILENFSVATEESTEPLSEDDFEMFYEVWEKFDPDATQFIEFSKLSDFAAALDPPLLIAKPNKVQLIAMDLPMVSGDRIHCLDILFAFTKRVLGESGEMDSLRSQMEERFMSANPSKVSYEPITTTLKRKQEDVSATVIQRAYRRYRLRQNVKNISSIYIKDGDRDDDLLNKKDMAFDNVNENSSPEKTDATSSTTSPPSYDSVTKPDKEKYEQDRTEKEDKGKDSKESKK
Procedure: The ability of the compounds of formula (I) to block the Nav1.7 (or SCN9A) channel was measured using the assay described below.
Human Embryonic Kidney (HEK) cells were transfected with an hSCN9A construct using lipofectamine reagent (Invitrogen), using standard techniques. Cells stably expressing the hSCN9A constructs were identified by their resistance to G-418 (400 μg/ml). Clones were screened for expression using the whole-cell voltage-clamp technique.
HEK cells stably transfected with hSCN9A were maintained in DMEM medium supplemented with 10% heat-inactivated fetal bovine serum and 400 μg/ml G-418 in an incubator at 37° C. with a humidified atmosphere of 10% CO2. For HTS, cells were harvested from flasks by trypsinization and replated in an appropriate multi-well plate (typically 96 or 384 wells/plate) such that confluence would be achieved within 24 hours of plating. Cells were typically used for electrophysiological experiments within 24 to 72 hours after plating.
For conventional whole-cell voltage clamp experiments cells were removed from the culture flask by brief trypsinization and re-plated at low density onto glass cover slips. Cover slips containing HEK cells expressing hSCN9A were placed in a bath on the stage of an inverted microscope and perfused (approximately 1 ml/minutes) with extracellular solution of the following composition: 138 mM NaCl, 2 mM CaCl2, 5.4 mM KCl, 1 mM MgCl2, 10 mM glucose, and 10 mM HEPES, pH 7.4, with NaOH. […] The osmolarity of the extracellular and intracellular solutions was 300 mOsm/kg and 295 mOsm/kg, respectively. All recordings were made at room temperature (22-24° C.) using AXOPATCH 200B amplifiers and PCLAMP software (Axon Instruments, Burlingame, Calif.). hSCN9A currents in HEK cells were measured using the whole-cell configuration of the patch-clamp technique (Hamill et al., 1981). Uncompensated series resistance was typically 2 to 5 mega ohms and >85% series resistance compensation was routinely achieved. […] Current records were acquired at 20 to 50 KHz and filtered at 5 to 10 KHz.
HEK cells stably transfected with hSCN9A were viewed under Hoffman contrast optics and placed in front of an array of flow pipes emitting either control or compound-containing extracellular solutions.
The voltage-dependence of inactivation was determined by applying a series of depolarizing prepulses (8 sec long in 10 mV increments) from a negative holding potential. The voltage was then immediately stepped to 0 mV to assess the magnitude of the sodium current. Currents elicited at 0 mV were plotted as a function of prepulse potential to allow estimation of the voltage at which 50% of the channels were inactivated (midpoint of inactivation or V1/2). Compounds were tested for their ability to inhibit hSCN9A sodium channels by activating the channel with a 20 msec voltage step […] to 0 mV following an 8 second conditioning prepulse to the empirically determined V1/2. Compound effect (% inhibition) was determined by difference in current amplitude before and after application of test compounds. For ease of comparison, “estimated IC-50” (EIC50) values were calculated from single point electrophysiology data by the following equation, (tested concentration, nM)×(100-% inhibition/% inhibition). Inhibition values <20% and >80% were excluded from the calculation.
Electrophysiological assays were conducted with PatchXpress 7000 hardware and associated software (Molecular Devices Corp). All assay buffers and solutions were identical to those used in conventional whole-cell voltage clamp experiments described above. hSCN9A cells were grown as above to 50%-80% confluency and harvested by trypsinization. Trypsinized cells were washed and resuspended in extracellular buffer at a concentration of 1×10^6 cells/ml. The onboard liquid handling facility of the PatchXpress was used for dispensing cells and application of test compounds.

[2] = Aqueous solubility, shake-flask method; format: physicochemical; conditions: aqueous buffer, thermodynamic from solid
Procedure: Aqueous solubility data were generated via a “shake-flask” method where an excess of compound was added to a buffer (typically phosphate buffered saline at pH 7.4) and shaken for a period of 18 hours at room temperature. After this time any excess solid was removed by double centrifugation to obtain a saturated aqueous solution. The amount of compound solubilised was quantified by HPLC-UV or LC-MS against a standard calibration curve.
The solubility data generated are set out below. Where a greater than figure is quoted, all available compound was solubilised and saturation was not achieved in the conditions employed.

[3] = pH 7.5, shaken 18 hours at room temperature
[4] = pH 7.4, shaken 18 hours at room temperature

IC50 [1] [nM]	solubility at 18 h [2, 3] [µg/mL]	SMILES	other results
2.3	612 (≈ 532 µM)	COCCOCCOCCOCCOCCOCCOCCOCCOCCOCCOCCOCCNCc1cc(-c2cc(-c3cccc(C(F)(F)F)c3)ccc2Oc2ccc(S(=O)(=O)Nc3ncns3)cc2C#N)ccn1 [Example 12, 3-cyano-4-({3-[2-(2,5,8,11,14,17,20,23,26,29,32,35-dodecaoxa-38-azanonatriacontan-39-yl)pyridin-4-yl]-3′-(trifluoromethyl)biphenyl-4-yl}oxy)-N-(1,2,4-thiadiazol-5-yl)benzenesulfonamide]	
1.5		NCc1cc(-c2cc(-c3cccc(C(F)(F)F)c3)ccc2Oc2cc(F)c(S(=O)(=O)Nc3nncs3)cc2Cl)ccn1 [Example 7, 4-({3-[2-(Aminomethyl)pyridin-4-yl]-3′-(trifluoromethyl)biphenyl-4-yl}oxy)-5-chloro-2-fluoro-N-1,3,4-thiadiazol-2-ylbenzenesulfonamide bis-formate salt]	solubility at 18 h ([2]; pH 7.2, shaken 18 hours at room temperature): 0.5 µg/mL
		N#Cc1cc(S(=O)(=O)Nc2ncns2)ccc1Oc1ccc(-c2cccc(C(F)(F)F)c2)cc1-c1ccnc(CNCCC2CCNCC2)c1 [Example 18b, 3-Cyano-4-{[3-(2-{[(2-piperidin-4-ylethyl)amino]methyl}pyridin-4-yl)-3′-(trifluoromethyl)biphenyl-4-yl]oxy}-N-1,2,4-thiadiazol-5-ylbenzenesulfonamide trihydrochloride salt]	solubility at 18 h [2, 4]: > 10000 µg/mL
2.9		NCc1cc(-c2cc(-c3cccc(C(F)(F)F)c3)ccc2Oc2cc(F)c(S(=O)(=O)Nc3cscn3)cc2Cl)ccn1 [Example 29, 4-({3-[2-(aminomethyl)pyridin-4-yl]-3′-(trifluoromethyl)biphenyl-4-yl}oxy)-5-chloro-2-fluoro-N-(1,3-thiazol-4-yl)benzenesulfonamide dihydrochloride salt]	solubility at 18 h ([2]; pH 7.0, shaken 18 hours at room temperature): < 0.5 µg/mL
17.5	> 3	COCCOCCOCCOCCOCCOCCOCCOCCOCCOCCOCCOCCC(=O)NCc1cc(-c2cc(-c3cccc(C(F)(F)F)c3)ccc2Oc2ccc(S(=O)(=O)Nc3ncns3)cc2C#N)ccn1 [Example 19, N-((4-(4-(4-(N-(1,2,4-thiadiazol-5-yl)sulfamoyl)-2-cyanophenoxy)-3′-(trifluoromethyl)-[1,1′-biphenyl]-3-yl)pyridin-2-yl)methyl)-2,5,8,11,14,17,20,23,26,29,32,35-dodecaoxaoctatriacontan-38-amide]	
< 10		COCCOCCOCCOCCOCCOCCOCCOCCOCCOCCOCCOCCC(=O)N1CCC(CCNCc2cc(-c3cc(-c4cccc(C(F)(F)F)c4)ccc3Oc3ccc(S(=O)(=O)Nc4ncns4)cc3C#N)ccn2)CC1 [Example 17, 4-((3-(2-(((2-(1-(2,5,8,11,14,17,20,23,26,29,32,35-dodecaoxaoctatriacontan-38-oyl)piperidin-4-yl)ethyl)amino)methyl)pyridin-4-yl)-3′-(trifluoromethyl)-[1,1′-biphenyl]-4-yl)oxy)-3-cyano-N-(1,2,4-thiadiazol-5-yl)benzenesulfonamide]	inhibition at 0.01 µM ([1]; HEK293, Nav1.7, PatchXpress, 10 nM, read-out: % inhibition at 10 nM dose): 87.4%; solubility at 18 h [2, 4]: > 2300 µg/mL
0.5	3	N#Cc1cc(S(=O)(=O)Nc2ncns2)ccc1Oc1ccc(-c2cccc(C(F)(F)F)c2)cc1-c1ccnc(CN)c1 [Example 26, 4-({3-[2-(Aminomethyl)pyridin-4-yl]-3′-(trifluoromethyl)biphenyl-4-yl}oxy)-3-cyano-N-1,2,4-thiadiazol-5-ylbenzenesulfonamide bis-formate salt]	
1	110 (≈ 138 µM)	COCCOCCOCCOCCNCc1cc(-c2cc(-c3cccc(C(F)(F)F)c3)ccc2Oc2ccc(S(=O)(=O)Nc3ncns3)cc2C#N)ccn1 [Example 15, 4-((3-(2-(5,8,11,14-tetraoxa-2-azapentadecyl)pyridin-4-yl)-3′-(trifluoromethyl)-[1,1′-biphenyl]-4-yl)oxy)-3-cyano-N-(1,2,4-thiadiazol-5-yl)benzenesulfonamide]	
2.1	< 500	O=S(=O)(Nc1nncs1)c1cc(Cl)c(Oc2ccc(-c3cccc(C(F)(F)F)c3)cc2-c2ccnc(CNCCC3CCNCC3)c2)cc1F [Example 6, 5-Chloro-2-fluoro-4-{[3-(2-{[(2-piperidin-4-ylethyl)amino]methyl}pyridin-4-yl)-3′-(trifluoromethyl)biphenyl-4-yl]oxy}-N-1,3,4-thiadiazol-2-ylbenzenesulfonamide bis-formate salt]	solubility at 18 h ([2]; pH 5.0, shaken 18 hours at room temperature): > 2300 µg/mL
10.4		COCCOCCOCCOCCNC(=O)OCc1cc(-c2cc(-c3cccc(C(F)(F)F)c3)ccc2Oc2ccc(S(=O)(=O)Nc3ncns3)cc2C#N)ccn1 [Example 11, (4-(4-(4-(N-(1,2,4-thiadiazol-5-yl)sulfamoyl)-2-cyanophenoxy)-3′-(trifluoromethyl)-[1,1′-biphenyl]-3-yl)pyridin-2-yl)methyl (2,5,8,11-tetraoxatridecan-13-yl)carbamate]	
0.9		CC(=O)N1CCC(CCNCc2cccc(-c3cc(-c4ccccc4)ccc3Oc3ccc(S(=O)(=O)Nc4ncns4)cc3C#N)c2)CC1 [Example 16, 4-{[3″-({[2-(1-Acetylpiperidin-4-yl)ethyl]amino}methyl)-1,1′:3′,1″-terphenyl-4′-yl]oxy}-3-cyano-N-1,2,4-thiadiazol-5-ylbenzenesulfonamide]	
5.8		CC(=O)N1CCC(CCNCc2cc(-c3cc(-c4cccc(C(F)(F)F)c4)ccc3Oc3ccc(S(=O)(=O)Nc4ncns4)cc3C#N)ccn2)CC1 [Example 1, 4-({3-[2-({[2-(1-Acetylpiperidin-4-yl)ethyl]amino}methyl)pyridin-4-yl]-3′-(trifluoromethyl)biphenyl-4-yl}oxy)-3-cyano-N-1,2,4-thiadiazol-5-ylbenzenesulfonamide]	
47.2		COCCOCCOCCOCCOCCOCCOCCOCCOCCOCCOCCOCCC(=O)NCc1cc(-c2cc(-c3cccc(C(F)(F)F)c3)ccc2Oc2cc(F)c(S(=O)(=O)Nc3nncs3)cc2Cl)ccn1 [Example 27, N-[(4-{4-[2-chloro-5-fluoro-4-(1,3,4-thiadiazol-2-ylsulfamoyl)phenoxy]-3′-(trifluoromethyl)biphenyl-3-yl}pyridin-2-yl)methyl]-2,5,8,11,14,17,20,23,26,29,32,35-dodecaoxaoctatriacontan-38-amide]	
5		COCCOCCOCCOCCOC1CCN(Cc2cc(-c3cc(-c4cccc(C(F)(F)F)c4)ccc3Oc3ccc(S(=O)(=O)Nc4ncns4)cc3C#N)ccn2)CC1 [Example 23, 4-((3-(2-((4-((2,5,8,11-tetraoxatridecan-13-yl)oxy)piperidin-1-yl)methyl)pyridin-4-yl)-3′-(trifluoromethyl)-[1,1′-biphenyl]-4-yl)oxy)-3-cyano-N-(1,2,4-thiadiazol-5-yl)benzenesulfonamide trifluoroacetate salt]	
